Experimental findings from ChEMBL document CHEMBL1151474, “Replication of Colonic Crohn's Disease Mucosal Escherichia coli Isolates within Macrophages and Their Susceptibility to Antibiotics” (Antimicrob Agents Chemother, 2008) are described below.

In brackets after ≈: the same amount, converted by molar mass. Activity calls are given as the source filed them.

In data set [1] the test system is J774.A1. In words: Cytotoxicity against mouse J774A1 cells assessed as release of adenylate kinase at 100 ug/ml after 3 hrs […] relative to control. The class given is cell-based. As to conditions: j774.a1, 3 h.
The test system of data set [2] is Escherichia coli. Kind of data set: Antibacterial activity against mucosa-associated Escherichia coli isolates isolated from patients with Crohn's disease by disk diffusion method. Type of data set: functional. (In agar diffusion tests the substance spreads into inoculated agar from a disc or well.)
For data set [3], the system named is Escherichia coli. In words: Antibacterial activity against Escherichia coli isolate HM605 isolated from colonic mucosal biopsies of patient with Crohn's disease.
Data set [4] relates to Escherichia coli. In words: Antibacterial activity against Escherichia coli isolate HM580 isolated from colonic mucosal biopsies of patient with Crohn's disease after 24 hrs by Etest antibiotic concentration gradient method. The following applies: isolate HM580, 24 h. Type of data set: functional.
For data set [5], the system named is Escherichia coli. In words: Antibacterial activity against mucosa-associated Escherichia coli isolate HM454 isolated from patient with irritable bowel syndrome or sporadic polyps after 24 hrs by Etest antibiotic concentration gradient method. The class given is functional. As to conditions: isolate HM454, 24 h.
In data set [6] the test system is Escherichia coli. In words: Antibacterial activity against gentamicin-treated internalized Escherichia coli isolate HM605 isolated from colonic mucosal biopsies of patient with Crohn's disease in mouse J774A1 cells assessed as intracellular killing of bacteria at 3 ug/ml after 3 hrs. Type of data set: functional, J774.A1.
Data set [7] deals with J774.A1. Kind of data set: Cytotoxicity against mouse J774A1 cells assessed as macrophage number at 3 ug/ml after 3 hrs by total cell protein assay. Type of data set: cell-based. As to conditions: j774.a1, 3 h.
Data set [8] relates to Escherichia coli. Kind of data set: Antibacterial activity Escherichia coli isolate HM419 isolated from ileo-colonic mucosal biopsies of patient with Crohn's disease after 24 hrs by Etest antibiotic concentration gradient method. The class given is functional. The following applies: isolate HM419, 24 h.
Data set [9] deals with Escherichia coli. In words: Antibacterial activity against gentamicin-treated internalized Escherichia coli isolate HM605 in mouse J774A1 cells isolated from colonic mucosal biopsies of patient with Crohn's disease assessed as intracellular killing of bacteria at 10% compound Cmax after 3 hrs. The class given is functional, J774.A1.
Data set [10] concerns Escherichia coli. In words: Antibacterial activity against gentamicin-treated internalized Escherichia coli isolate LF82 in mouse J774A1 cells isolated from chronic ileal lesions of patient with Crohn's disease assessed as intracellular killing of bacteria at 10% compound Cmax after 3 hrs. The class given is functional, J774.A1.
Data set [11] concerns Escherichia coli. Kind of data set: Antibacterial activity against Escherichia coli isolate HM605 isolated from colonic mucosal biopsies of patient with Crohn's disease after 24 hrs by Etest antibiotic concentration gradient method. The class given is functional. As to conditions: isolate HM605, 24 h.
In data set [12] the test system is Escherichia coli. In words: Antibacterial activity against Escherichia coli K-12 after 24 hrs by Etest antibiotic concentration gradient method. Type of data set: functional. As to conditions: K-12, 24 h.
For data set [13], the system named is Escherichia coli. In words: Antibacterial activity Escherichia coli isolate HM413 isolated from ileo-colonic mucosal biopsies of patient with Crohn's disease after 24 hrs by Etest antibiotic concentration gradient method. Type of data set: functional. As to conditions: isolate HM413, 24 h.
Data set [14] concerns Escherichia coli. In words: Antibacterial activity against gentamicin-treated internalized Escherichia coli isolate HM615 in mouse J774A1 cells isolated from colonic mucosal biopsies of patient with Crohn's disease assessed as intracellular killing of bacteria at 10% compound Cmax after 3 hrs. The class given is functional, J774.A1.
The nature of data set [15]: Cmax in healthy human at 500 mg administered orally. The class given is ADME, organism-based. Also noted: dose 500 mg, route oral. As to conditions: in vivo, po.
Data set [16] concerns Escherichia coli. Kind of data set: Antibacterial activity against Escherichia coli isolate HM154 isolated from colonic mucosal biopsies of patient with Crohn's disease after 24 hrs by Etest antibiotic concentration gradient method. Type of data set: functional. As to conditions: isolate HM154, 24 h.
In data set [17] the test system is Escherichia coli. Kind of data set: Antibacterial activity against Escherichia coli isolate HM615 isolated from colonic mucosal biopsies of patient with Crohn's disease after 24 hrs by Etest antibiotic concentration gradient method. Type of data set: functional. As to conditions: isolate HM615, 24 h.
Data set [18] deals with Escherichia coli. In words: Antibacterial activity against Escherichia coli isolate HM95 isolated from ileal mucosal biopsies of patient with Crohn's disease after 24 hrs by Etest antibiotic concentration gradient method. Type of data set: functional. The following applies: isolate HM95, 24 h.
For data set [19], the system named is Escherichia coli. In words: Antibacterial activity against mucosa-associated Escherichia coli isolate HM456 isolated from patient with irritable bowel syndrome or sporadic polyps after 24 hrs by Etest antibiotic concentration gradient method. The class given is functional. As to conditions: isolate HM456, 24 h.
Data set [20] concerns Escherichia coli. Kind of data set: Antibacterial activity against extracellular Escherichia coli isolate HM605 isolated from colonic mucosal biopsies of patient with Crohn's disease at 0.01 to 10 ug/ml after 3 hrs. Type of data set: functional, organism-based.
The subject of data set [21] is Escherichia coli. Kind of data set: Antibacterial activity against mucosa-associated Escherichia coli isolate HM428 isolated from patient with irritable bowel syndrome or sporadic polyps after 24 hrs by Etest antibiotic concentration gradient method. Type of data set: functional. The following applies: isolate HM428, 24 h.
Data set [22] has as its system Escherichia coli. In words: Antibacterial activity against gentamicin-treated internalized Escherichia coli isolate HM580 in mouse J774A1 cells isolated from colonic mucosal biopsies of patient with Crohn's disease assessed as intracellular killing of bacteria at 10% compound Cmax after 3 hrs. The class given is functional, J774.A1.
The test system of data set [23] is Escherichia coli. Kind of data set: Antibacterial activity against Escherichia coli isolates isolated from patients with Crohn's disease at 5 ug/disk by susceptibility testing disk method. Type of data set: functional.
The subject of data set [24] is Escherichia coli. Kind of data set: Antibacterial activity against Escherichia coli ATCC 25922 after 24 hrs by Etest antibiotic concentration gradient method. The class given is functional, organism-based.
Data set [25] is described as follows: Cmax in healthy human at 160 mg administered orally. As to conditions: in vivo, po.

As for `CC1(C)S[C@@H]2[C@H](NC(=O)Cc3ccccc3)C(=O)N2[C@H]1C(=O)O` [PENICILLIN G], the figures for the Activity in data set [1] and in data set [2] were 90% and 0%, respectively.

The compound `CC[C@H]1OC(=O)[C@H](C)[C@@H](O[C@H]2C[C@@](C)(OC)[C@@H](O)[C@H](C)O2)[C@H](C)[C@@H](O[C@@H]2O[C@H](C)C[C@H](N(C)C)[C@H]2O)[C@](C)(OC)C[C@@H](C)C(=O)[C@H](C)[C@@H](O)[C@]1(C)O` [CLARITHROMYCIN] yielded an MBC in data set [3] of 3 µg/mL (≈ 4.01 µM). In addition, the MIC in data set [4] is ≥ 16 µg/mL; in data set [5], ≥ 16 µg/mL; in [8], ≥ 16 µg/mL; in [11] it was 16 µg/mL (≈ 21.4 µM); in [12], 24 µg/mL (≈ 32.1 µM); in data set [13], ≥ 16 µg/mL. Further, the MIC in data set [16], in data set [17], in [18], in [19] and in data set [21] was ≥ 16 µg/mL throughout. Moreover, the Activity was determined as 62.1% in data set [6]; 73.4 in data set [7]; 90% in data set [1]; 33.5% in [9]; 55.2% in [10]; 81.8% in data set [14]. The Activity in data set [22] is on record as 57.5%; in data set [23], 0%. Besides, the Cmax in data set [15] was 3000 ng/mL. Moreover, the outcome in data set [20] was Active.

As for `CCn1cc(C(=O)O)c(=O)c2ccc(C)nc21` [NALIDIXIC ACID], the Activity in [1] was determined as 90%; in data set [2], 100%.

For `COc1cc(Cc2cnc(N)nc2N)cc(OC)c1OC` [TRIMETHOPRIM], in data set [3], the minimal bactericidal concentration (MBC) was determined as 100 µg/mL (≈ 344 µM). Further, the minimal inhibitory concentration (MIC) was ≤ 4 µg/mL in data set [4]; ≤ 4 µg/mL in data set [8]; > 32 µg/mL in data set [11]; ≤ 4 µg/mL in [13]; ≤ 4 µg/mL in data set [16]; ≤ 4 µg/mL in [17]. In addition, the MIC in data set [18], in data set [19] and in [21] was ≤ 4 µg/mL each time. Also, the Activity in data set [1] is 90%; in data set [9], 49.1%; in data set [10] it was 50.2%; in data set [2], 100%; in [14], 61.7%; in data set [22], 46.9%. Besides, the result in data set [24] and in [20] was Active. The Cmax in data set [25] turned out to be 2300 ng/mL.

On to `O=C(N[C@H](CO)[C@H](O)c1ccc([N+](=O)[O-])cc1)C(Cl)Cl` [CHLORAMPHENICOL], for which the figures for the Activity in data set [1] and in data set [2] were 90% and 62%, respectively.

By MBC is commonly meant the smallest concentration meeting the test's criterion for killing. A high value points to weaker bactericidal potency. The term MIC denotes the lowest concentration that inhibits growth of the organism. Low values mean inhibition by little substance, high ones a need for much substance. By Cmax is commonly meant the peak of the concentration-time curve.
